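96-well plates; 48 h exposure; 5 concentrations. Endpoints by linear interpolation between flanking doses. Not reached: highest tested concentration assigned. GI50 marks 50% less growth.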 Activity calls are given as the source filed them. No stated cut-off is given here; in the data, active = GI50 up to about 1.1 µM and inactive = higher.
What was measured:
Test in all cases: DTP human tumour cell line panel, 48 h
RPMI-8226 = system: RPMI-8226
OVCAR-3 = system: OVCAR-3
NCI-H522 = system: NCI-H522
SNB-75 = system: SNB-75
SK-MEL-5 = system: SK-MEL-5
SW-620 = system: SW-620
OVCAR-5 = system: OVCAR-5
A498 = system: A498
OVCAR-4 = system: OVCAR-4
Malme-3M = system: Malme-3M
SR = system: SR
IGROV-1 = system: IGROV-1
COLO 205 = system: COLO 205
HT-29 = system: HT-29
SF-295 = system: SF-295
786-0 = system: 786-0
EKVX = system: EKVX
UACC-257 = system: UACC-257

Measured: GI50

Cn1sc2ccccc2c1=S
inactive: RPMI-8226 6.73 µM | OVCAR-3 4.2 µM | NCI-H522 3.16 µM | SNB-75 6.82 µM | SK-MEL-5 12.4 µM | SW-620 2.28 µM | OVCAR-5 20 µM | A498 48.5 µM | OVCAR-4 8.2 µM | Malme-3M 9.82 µM | SR 14 µM | IGROV-1 13 µM | COLO 205 13.3 µM | HT-29 10.7 µM | SF-295 12.6 µM | 786-0 3.85 µM | EKVX 8.69 µM | UACC-257 8.63 µM

COc1ccc(C(=O)c2c(C(C(=O)c3ccc(OC)cc3)C(=O)c3ccc(OC)cc3)n(C(=O)c3ccc(OC)cc3)c3ccccc23)cc1
inactive: RPMI-8226 > 100 µM | OVCAR-3 > 100 µM | NCI-H522 > 100 µM | SNB-75 > 100 µM | SK-MEL-5 > 100 µM | SW-620 > 100 µM | OVCAR-5 > 100 µM | A498 > 100 µM | OVCAR-4 > 100 µM | Malme-3M > 100 µM | SR > 100 µM | IGROV-1 > 100 µM | COLO 205 > 100 µM | HT-29 > 100 µM | SF-295 > 100 µM | 786-0 > 100 µM | EKVX > 100 µM

CCCCOC(=O)NC(=O)c1cn(CCCOC(=O)CCCCCCCCC(=O)OCCCn2cc(C(=O)NC(=O)OCCCC)c(=O)n(C)c2=O)c(=O)n(C)c1=O
inactive: RPMI-8226 > 100 µM | OVCAR-3 > 100 µM | NCI-H522 > 100 µM | SNB-75 58.1 µM | SK-MEL-5 > 100 µM | SW-620 > 100 µM | OVCAR-5 > 100 µM | A498 > 100 µM | OVCAR-4 > 100 µM | Malme-3M > 100 µM | SR > 100 µM | IGROV-1 > 100 µM | COLO 205 > 100 µM | HT-29 > 100 µM | SF-295 > 100 µM | 786-0 > 100 µM | EKVX > 100 µM | UACC-257 > 100 µM

O=c1[nH]c(=O)n(C2OC(CO)C(O)C2O)cc1/N=N/NCc1ccccc1 (configuration not stated)
inactive: RPMI-8226 > 59.6 µM | OVCAR-3 > 100 µM | NCI-H522 > 100 µM | SNB-75 > 100 µM | SK-MEL-5 > 100 µM | SW-620 > 53.5 µM | OVCAR-5 > 100 µM | A498 > 100 µM | OVCAR-4 > 100 µM | Malme-3M > 100 µM | SR > 63.2 µM | IGROV-1 > 100 µM | COLO 205 > 69.2 µM | HT-29 > 100 µM | SF-295 > 100 µM | 786-0 > 100 µM | EKVX > 100 µM | UACC-257 > 100 µM

CCOc1ccc(OCC(=O)O)c2c1CCCC2=O
inactive: RPMI-8226 > 100 µM | OVCAR-3 > 100 µM | NCI-H522 > 100 µM | SNB-75 > 100 µM | SK-MEL-5 > 100 µM | SW-620 > 100 µM | OVCAR-5 > 100 µM | A498 > 100 µM | OVCAR-4 > 100 µM | Malme-3M > 100 µM | SR > 100 µM | IGROV-1 > 100 µM | COLO 205 > 100 µM | HT-29 > 100 µM | SF-295 > 100 µM | 786-0 > 100 µM | EKVX > 100 µM | UACC-257 > 100 µM

CCN(CC)CCCC(C)Nc1c2cc(OC)cc(C)c2nc2c(C)c(Cl)ccc12 (configuration not stated)
inactive: RPMI-8226 2.62 µM | OVCAR-3 1.79 µM | NCI-H522 1.67 µM | SNB-75 1.68 µM | SK-MEL-5 1.87 µM | SW-620 1.85 µM | OVCAR-5 2.1 µM | A498 2.43 µM | OVCAR-4 1.71 µM | Malme-3M 1.85 µM | SR 2.01 µM | IGROV-1 1.67 µM | COLO 205 1.64 µM | HT-29 1.62 µM | SF-295 2.22 µM | 786-0 1.64 µM | EKVX 1.85 µM | UACC-257 1.81 µM
